Assay results from ChEMBL document CHEMBL1201862, “PubChem BioAssay data set” (2004).
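Protocol summary: plate cells (96-well), add compound at 5 concentrations, incubate 48 h, interpolate endpoints linearly. GI50 is the concentration that inhibits growth by half.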 Active and inactive are the calls of the source. Rule as the data show it: active = GI50 up to about 1.1 µM and inactive = higher.

Key:
Experiment in all cases: NCI anticancer screen, dose series, 48 h
[1] = test system: 786-0
[2] = test system: A549
[3] = test system: ACHN
[4] = test system: BT-549
[5] = test system: CAKI-1
[6] = test system: CCRF-CEM
[7] = test system: COLO 205
[8] = test system: DU-145
[9] = test system: EKVX
[10] = test system: HCC 2998
[11] = test system: HCT-116
[12] = test system: HCT-15
[13] = test system: HL-60
[14] = test system: HOP-92
[15] = test system: HT-29
[16] = test system: IGROV-1
[17] = test system: K562
[18] = test system: KM12
[19] = test system: LOX IMVI
[20] = test system: M14
[21] = test system: MCF7
[22] = test system: MDA-MB-231
[23] = test system: MDA-MB-435
[24] = test system: MDA-N
[25] = test system: MOLT-4
[26] = test system: Malme-3M
[27] = test system: NCI-H226
[28] = test system: NCI-H23
[29] = test system: NCI-H460
[30] = test system: NCI-H522
[31] = test system: NCI/ADR-RES
[32] = test system: OVCAR-3
[33] = test system: OVCAR-4
[34] = test system: OVCAR-5
[35] = test system: OVCAR-8
[36] = test system: PC-3
[37] = test system: RXF 393
[38] = test system: SF-295
[39] = test system: SF-539
[40] = test system: SK-MEL-28
[41] = test system: SK-MEL-2
[42] = test system: SK-MEL-5
[43] = test system: SK-OV-3
[44] = test system: SN12C
[45] = test system: SNB-19
[46] = test system: SNB-75
[47] = test system: SR
[48] = test system: SW-620
[49] = test system: T47D
[50] = test system: TK-10
[51] = test system: U-251
[52] = test system: UACC-257
[53] = test system: UACC-62
[54] = test system: UO-31
[55] = test system: A498
[56] = test system: HOP-62
[57] = test system: Hs-578T
[58] = test system: RPMI-8226
[59] = test system: SF-268

Cc1ccc([S+]([O-])/C=C(\NC(=O)OCc2ccccc2)C(F)(F)F)cc1 (configuration not stated)
GI50 [1]: 53.3 µM (inactive)
GI50 [2]: 41 µM (inactive)
GI50 [3]: 17.8 µM (inactive)
GI50 [4]: > 100 µM (inactive)
GI50 [5]: 42 µM (inactive)
GI50 [6]: 31.6 µM (inactive)
GI50 [7]: 58.6 µM (inactive)
GI50 [8]: 77.3 µM (inactive)
GI50 [9]: 46.6 µM (inactive)
GI50 [10]: 37.5 µM (inactive)
GI50 [11]: 45.7 µM (inactive)
GI50 [12]: 33.4 µM
GI50 [13]: 18 µM (inactive)
GI50 [14]: 55.8 µM (inactive)
GI50 [15]: 32.1 µM (inactive)
GI50 [16]: 45.3 µM (inactive)
GI50 [17]: 28.1 µM (inactive)
GI50 [18]: 32.9 µM (inactive)
GI50 [19]: 32.1 µM (inactive)
GI50 [20]: > 100 µM (inactive)
GI50 [21]: 32.2 µM (inactive)
GI50 [22]: 55.2 µM (inactive)
GI50 [23]: 22.4 µM (inactive)
GI50 [24]: 38.6 µM (inactive)
GI50 [25]: 25.2 µM (inactive)
GI50 [26]: 35.2 µM (inactive)
GI50 [27]: 34.4 µM (inactive)
GI50 [28]: 33.4 µM (inactive)
GI50 [29]: 41.4 µM (inactive)
GI50 [30]: 29.8 µM (inactive)
GI50 [31]: 33.1 µM (inactive)
GI50 [32]: 43.6 µM (inactive)
GI50 [33]: 67.5 µM (inactive)
GI50 [34]: 52 µM (inactive)
GI50 [35]: 36.9 µM (inactive)
GI50 [36]: 50.4 µM (inactive)
GI50 [37]: 35.5 µM (inactive)
GI50 [38]: 39.8 µM (inactive)
GI50 [39]: 26.7 µM (inactive)
GI50 [40]: 22.1 µM (inactive)
GI50 [41]: 32.4 µM (inactive)
GI50 [42]: 60.4 µM (inactive)
GI50 [43]: > 100 µM (inactive)
GI50 [44]: 45.4 µM (inactive)
GI50 [45]: 29.3 µM (inactive)
GI50 [46]: 18.8 µM (inactive)
GI50 [47]: 30.4 µM (inactive)
GI50 [48]: 19.3 µM (inactive)
GI50 [49]: 39.7 µM (inactive)
GI50 [50]: 80.2 µM (inactive)
GI50 [51]: 18.6 µM (inactive)
GI50 [52]: 78 µM (inactive)
GI50 [53]: 35.2 µM (inactive)
GI50 [54]: 21.9 µM (inactive)

CC(C)CCCC(C)[C@H]1CC[C@H]2[C@@H]3CC[C@H]4C[C@@H](CCC=C(c5cc(Cl)c(O)c(C(=O)OC(C)(C)C)c5)c5cc(Cl)c(O)c(C(=O)OC(C)(C)C)c5)CC[C@]4(C)[C@H]3CC[C@]12C (some centres not stated)
GI50 [1]: > 50 µM (inactive)
GI50 [55]: > 50 µM (inactive)
GI50 [2]: > 50 µM (inactive)
GI50 [4]: > 50 µM (inactive)
GI50 [5]: > 50 µM (inactive)
GI50 [6]: > 50 µM (inactive)
GI50 [7]: > 50 µM (inactive)
GI50 [8]: > 50 µM (inactive)
GI50 [9]: > 50 µM (inactive)
GI50 [10]: > 50 µM (inactive)
GI50 [11]: > 50 µM (inactive)
GI50 [12]: > 50 µM
GI50 [13]: > 50 µM (inactive)
GI50 [56]: > 50 µM (inactive)
GI50 [15]: > 50 µM (inactive)
GI50 [57]: > 50 µM (inactive)
GI50 [16]: > 50 µM (inactive)
GI50 [17]: > 50 µM (inactive)
GI50 [18]: > 50 µM (inactive)
GI50 [19]: > 50 µM (inactive)
GI50 [20]: > 50 µM (inactive)
GI50 [21]: > 50 µM (inactive)
GI50 [22]: > 50 µM (inactive)
GI50 [23]: > 50 µM (inactive)
GI50 [24]: > 50 µM (inactive)
GI50 [25]: > 50 µM (inactive)
GI50 [28]: > 50 µM (inactive)
GI50 [31]: > 50 µM (inactive)
GI50 [32]: > 50 µM (inactive)
GI50 [33]: > 50 µM (inactive)
GI50 [34]: > 50 µM (inactive)
GI50 [36]: > 50 µM (inactive)
GI50 [58]: > 50 µM (inactive)
GI50 [37]: > 50 µM (inactive)
GI50 [59]: > 50 µM (inactive)
GI50 [38]: > 50 µM (inactive)
GI50 [39]: 15.7 µM (inactive)
GI50 [40]: > 50 µM (inactive)
GI50 [41]: > 50 µM (inactive)
GI50 [42]: > 50 µM (inactive)
GI50 [43]: > 50 µM (inactive)
GI50 [44]: > 50 µM (inactive)
GI50 [45]: > 50 µM (inactive)
GI50 [46]: > 50 µM (inactive)
GI50 [48]: > 50 µM (inactive)
GI50 [49]: > 50 µM (inactive)
GI50 [51]: > 50 µM (inactive)
GI50 [53]: > 50 µM (inactive)

CC(=O)O[C@H]1C[C@](C)(O)[C@@]23CC([C@@H](OC(=O)C(C)(C)O)[C@@H](OC(C)=O)C2(COC(=O)c2ccccc2)[C@H]1OC(C)=O)C(C)(C)O3 (some centres not stated)
GI50 [1]: > 100 µM (inactive)
GI50 [55]: > 100 µM (inactive)
GI50 [2]: 47.8 µM (inactive)
GI50 [3]: > 100 µM (inactive)
GI50 [4]: > 100 µM (inactive)
GI50 [5]: > 100 µM (inactive)
GI50 [6]: 41.1 µM (inactive)
GI50 [7]: > 100 µM (inactive)
GI50 [8]: > 100 µM (inactive)
GI50 [9]: > 100 µM (inactive)
GI50 [10]: > 100 µM (inactive)
GI50 [11]: > 100 µM (inactive)
GI50 [12]: > 100 µM
GI50 [56]: > 100 µM (inactive)
GI50 [14]: 60.3 µM (inactive)
GI50 [15]: > 100 µM (inactive)
GI50 [57]: > 100 µM (inactive)
GI50 [16]: > 100 µM (inactive)
GI50 [17]: 50 µM (inactive)
GI50 [18]: 78.5 µM (inactive)
GI50 [19]: 61.5 µM (inactive)
GI50 [20]: 55.5 µM (inactive)
GI50 [21]: 50.9 µM (inactive)
GI50 [22]: 16.8 µM (inactive)
GI50 [23]: > 100 µM (inactive)
GI50 [24]: > 100 µM (inactive)
GI50 [25]: 31.4 µM (inactive)
GI50 [26]: > 100 µM (inactive)
GI50 [28]: > 100 µM (inactive)
GI50 [29]: > 100 µM (inactive)
GI50 [30]: 67.1 µM (inactive)
GI50 [31]: > 100 µM (inactive)
GI50 [32]: 78.9 µM (inactive)
GI50 [33]: > 100 µM (inactive)
GI50 [34]: > 100 µM (inactive)
GI50 [35]: > 100 µM (inactive)
GI50 [36]: 44 µM (inactive)
GI50 [58]: 23.6 µM (inactive)
GI50 [37]: > 100 µM (inactive)
GI50 [59]: > 100 µM (inactive)
GI50 [38]: 84.3 µM (inactive)
GI50 [39]: > 100 µM (inactive)
GI50 [40]: > 100 µM (inactive)
GI50 [41]: 86.5 µM (inactive)
GI50 [42]: 77.6 µM (inactive)
GI50 [43]: > 100 µM (inactive)
GI50 [44]: > 100 µM (inactive)
GI50 [45]: > 100 µM (inactive)
GI50 [48]: > 100 µM (inactive)
GI50 [49]: > 100 µM (inactive)
GI50 [50]: > 100 µM (inactive)
GI50 [51]: 33.4 µM (inactive)
GI50 [52]: > 100 µM (inactive)
GI50 [53]: > 100 µM (inactive)
GI50 [54]: > 100 µM (inactive)
